This note sets out measurements from paper PMC5007466, “VCP recruitment to mitochondria causes mitophagy impairment and neurodegeneration in models of Huntington's disease” (Nature Communications, 2016).

The subject of experiment [1] is HdhQ111 mouse striatal cells. In words: GFP-LC3B puncta. The note with it: 3 uM/day for 3 days. The format is cell-based. How it is done:
Figure 5 Treatment of HV-3 reduces excessive mitophagy in HD cell cultures and HD mouse brains. (a) HdhQ7 and HdhQ111 cells were treated with control siRNA (con) or VCP siRNA (siVCP) for 48 h. Mitochondria were isolated and LC3 mitochondrial levels were determined by WB. Representative blots are from three independent experiments. The quantitation of LC3 II levels on mitochondria is provided on the right. VADC was used as a loading control. (b) Flag-VCP and GFP-LC3B were co-transfected into wild-type striatal cells. Mitochondria were isolated after 36 h of transfection. The GFP-LC3B levels on mitochondria were examined by WB. VDAC was used as a loading control. Representative blots are from three independent experiments. Histogram: quantitation of GFP-LC3B mitochondrial protein level. HdhQ7 and HdhQ111 cells were treated with control peptide TAT or peptide HV-3 (3 uM/day for 3 days). (c) HdhQ111 cells were transfected with GFP-LC3B for 24 h. The number of GFP-LC3B puncta was quantitated and shown in the histogram. Scale bars: 10 μm. (d) Enzyme activity of lysosomal Cathepsin B was measured using a Cathepsin B assay kit. […] (e) Mitochondrial mass was measured by the fluorescent density of Mitotracker green. […] Histogram: the number of mitophagosomes per 100 μm^2 was counted and quantitated. Fifteen random areas in the striatum of each animal were analyzed. […]

The test system of experiment [2] is HdhQ111 / HdhQ7 mouse striatal cells. The experiment in a line: Mitochondrial membrane potential (TMRM), mouse striatal cells. The format is cell-based. How it is done: Immortalized striatal cell lines HdhQ111 mutant and HdhQ7 wt cells were obtained from the CHDI Foundation. Cells were cultured in DMEM supplemented with 10% FBS, 100 μg/ml penicillin, 100 μg ml^−1 streptomycin, and 400 μg ml^−1 G418. Cells were grown at 33 °C in a 5% CO2 incubator. Cells within 14 passages were used in all experiments.
For silencing Htt and VCP in HD striatal cells, control siRNA, mouse Htt and mouse VCP siRNA were purchased from Thermo Fisher Scientific. HdhQ7 and HdhQ111 cells were transfected either with control siRNA, or Htt or VCP siRNA using TransIT-TKO Transfection Reagent (Mirus Bio, LLC), according to the manufacturer's instructions. The sequences for the siRNAs used in this study are as follows: mouse Htt, 5′-[…]-3′; Mouse VCP, 5′-GAGAGCAACCUUCGUAAG-3′; control non-targeting siRNA, 5′-TTCTCCGAACGTGTCACGT-3′.
To determine mitochondrial mass in cultures, cells were stained with antibodies against Tom20 or stained with Mitotracker green. The fluorescent density of Tom20 (1:500) or mitotracker green was quantitated using NIH Image J software. To measure the membrane potential of mitochondria in cultures, cells were incubated with 0.25 μM tetra-methyl rhodamine (Invitrogen Life Science) for 20 min at 37 °C. To determine lysosomal activity, cells were incubated with Lyso-ID Red dye (Enzo Life Science) for 30 min at 37 °C. The images were visualized by microscope and quantitation of the density of red fluorescence was carried out using NIH ImageJ software. For immunocytochemistry study, at least 100 cells per group were counted and quantitated by an observer blind to experimental conditions.

The subject of experiment [3] is R6/2 mice. In words: Spontaneous locomotion, R6/2. Format: in vivo, mouse. The note with it: R6/2, 13 weeks of age, 3 mg kg^−1 per day s.c. pump from 5 weeks, n=15. The text has this: Male R6/2 mice and their wt littermates (4 weeks old) were purchased from Jackson Laboratories (Bar Harbor, ME; B6CBA-TgN (HD exon 1)62; JAX stock number: 006494). These mice (C57BL/6 and CBA genetic background) are transgenic for the 5′ end of the human HD gene carrying 100–150 glutamine (CAG) repeats.
(§1) Male hemizygous R6/2 mice (Tg) and their age-matched wt littermates (5-week-old) were implanted with a 28-day osmotic pump (Alzet, Cupertino CA) containing TAT control peptide or HV-3 peptide, which delivered peptides to the mice at a rate of 3 mg kg^−1 per day. The first pump was implanted subcutaneously in the back of 5-week-old mice between the shoulders and replaced once, after 4 weeks.
Gross locomotor activity was assessed in R6/2 mice and age-matched wt littermates at the ages of 13 weeks and in YAC128 mice and age-matched wt littermates at the ages of 2, 3, 6, 9, and 12 months. In an activity chamber (Omnitech Electronics, Inc), mice were placed in the center of the chamber and allowed to explore while being tracked by an automated beam system (Vertax, Omnitech Electronics Inc). Distance moved, horizontal, vertical, and rearing activities were recorded. Because R6/2 mice were sensitive to changes in environment and handling, we only conducted one-hour locomotor activity analysis for R6/2 mice and wt littermates. […]

The subject of experiment [4] is R6/2 mice. The experiment in a line: DARPP-32 protein level in R6/2 striatal extracts. Format: in vivo, mouse. As to conditions: 3 mg kg^−1 per day, n=6. The procedure:
as §1
Protein concentrations were determined by Bradford assay. Protein was resuspended in Laemmli buffer, loaded on SDS–PAGE, and transferred onto nitrocellulose membranes. Membranes were probed with the indicated antibodies, followed by visualization with ECL. Representative blots have been cropped for presentation. Images of full-size blots are presented in Supplementary Fig. 9.

As to `CSCC[C@H](NC(=O)[C@@H](NC(=O)[C@H](CC(C)C)NC(=O)[C@@H](NC(=O)[C@H](Cc1c[nH]cn1)NC(=O)CCCCCNC(=O)[C@H](CCCNC(=N)N)NC(=O)[C@H](CCCNC(=N)N)NC(=O)[C@H](CCCNC(=N)N)NC(=O)[C@H](CCC(N)=O)NC(=O)[C@H](CCCNC(=N)N)NC(=O)[C@H](CCCNC(=N)N)NC(=O)[C@H](CCCCN)NC(=O)[C@H](CCCCN)NC(=O)[C@H](CCCNC(=N)N)NC(=O)CNC(=O)[C@@H](N)Cc1ccc(O)cc1)C(C)C)C(C)C)C(=O)N[C@@H](CS)C(=O)N[C@@H](C)C(=O)N[C@H](C(N)=O)[C@@H](C)O` [HV-3], the “number of GFP-LC3B puncta” value in experiment [1] is listed as “reduced by treatment with HV-3”. Also, the mitochondrial membrane potential result in experiment [2] (HdhQ111 cells, HV-3 3 uM/day for 3 days versus TAT) is listed as “markedly improved the mitochondrial membrane potential”. The “mitochondrial membrane potential in presence of VCP siRNA” value in experiment [2] (HdhQ111 cells, HV-3 + VCP siRNA) is “no additional protection on the MMP”. In experiment [2] (wt counterparts of the HD models), the “mitochondrial membrane potential, wt” value is “only minor effects”. Besides, in the experiment on R6/2 mice [3], the “spontaneous locomotion (total distance, horizontal and vertical activities)” value was “markedly corrected these motor deficits”. Besides, the DARPP-32 protein level result with R6/2 mice [4] is “significantly increased DARPP-32 levels in the two mouse models”.
